# Test results published in patent US7012041B2, “Phenylpyridazinones” (Bayer AG, priority 1995, dated 2006).
# Key:
# Type in all cases: in vivo
# Galinsoga = test: Pre-emergence test/greenhouse; settings: after three weeks
# Description: (§1) • Solvent: 5 parts by weight of acetone • Emulsifier: 1 part by weight of alkylaryl polyglycol ether
# (§2) To produce a suitable preparation of active compound, 1 part by weight of active compound is mixed with the stated amount of solvent, the stated amount of emulsifier is added and the concentrate is diluted with water to the desired concentration.
# (§3) Seeds of the test plants are sown in normal soil. After 24 hours, the soil is watered or sprayed with the preparation of the active compound. It is advantageous to keep the amount of water per unit area constant. The concentration of the active compound in the preparation is immaterial, only the amount of active compound applied per unit area matters.
# (§4) After three weeks, the degree of damage to the plants is rated in % damage by comparison with the development of the untreated control.
# (§5) The figures denote: • 0%=no effect (like untreated control) • 100%=total destruction
# Sunflower = test: Pre-emergence test/greenhouse; settings: after three weeks
# Description: as §1, §2, §3, §4, §5
# Chenopodium [1] = test: Pre-emergence test/greenhouse; settings: after three weeks
# Description: as §1, §2, §3, §4, §5
# Solanum = test: Pre-emergence test/greenhouse; settings: after three weeks
# Description: as §1, §2, §3, §4, §5
# Maize = test: Pre-emergence test/greenhouse; settings: after three weeks
# Description: as §1, §2, §3, §4, §5
# Abutilon = test: Pre-emergence test/greenhouse; settings: for % damage Abutilon: after three weeks; for activity against Abutilon (% damage): application rate between 125 and 500 g/ha, span over the named compounds
# Description: as §1, §2, §3, §4, §5
# Polygonum = test: Post-emergence test/greenhouse; settings: after three weeks
# Description: as §1, §2
# (§6) Test plants which have a height of 5–15 cm are sprayed with the preparation of the active compound in such a way as to apply the particular amounts of active compound desired per unit area.
# as §4, §5
# Wheat = test: Post-emergence test/greenhouse; settings: after three weeks
# Description: as §1, §2, §6, §4, §5
# Amaranthus = test: Post-emergence test/greenhouse; settings: after three weeks
# Description: as §1, §2, §6, §4, §5
# Chenopodium [2] = test: Post-emergence test/greenhouse; settings: after three weeks
# Description: as §1, §2, §6, §4, §5
# Datura = test: Post-emergence test/greenhouse; settings: after three weeks
# Description: as §1, §2, §6, §4, §5
# Veronica = test: Post-emergence test/greenhouse; settings: after three weeks
# Description: as §1, §2, §6, §4, §5
SMILES,% damage Galinsoga (Galinsoga; 250 g ai/ha) [%],% damage Solanum (Solanum; 250 g ai/ha) [%],% damage Maize (Maize; 250 g ai/ha) [%],% damage Abutilon (Abutilon; 250 g ai/ha) [%],activity against Abutilon (% damage) (Abutilon) [%],% damage Sunflower (Sunflower; 500 g ai/ha) [%],% damage Chenopodium (Chenopodium [1]; 500 g ai/ha) [%],% damage Solanum (Solanum; 500 g ai/ha) [%],% damage Maize (Maize; 500 g ai/ha) [%],% damage Abutilon (Abutilon; 500 g ai/ha) [%],% damage Galinsoga (Galinsoga; 500 g ai/ha) [%],other results
"C#CCOc1cc(-n2nc(C)ccc2=O)c(F)cc1C#N [Example 7, 2-(2-fluoro-4-cyano-5-propargyloxy-phenyl)-6-methyl-pyridazin-3-one]",95,100,0,100,100,,,,,,,% damage Sunflower (Sunflower; 250 g ai/ha): 20%; % damage Chenopodium (Chenopodium [1]; 250 g ai/ha): 100%
Cc1cnn(-c2cc(OC(C)C)c(C#N)cc2F)c(=O)c1 [Example 36],90,100,10,100,100,,,,,,,% damage Chenopodium (Chenopodium [1]; 250 g ai/ha): 100%
C#CCOc1cc(-n2ncc(N(C)C)c(Cl)c2=O)c(F)cc1C#N [Example 41],,,,,100,,,,,,,% damage Galinsoga (Galinsoga; 125 g ai/ha): 100%; % damage Sunflower (Sunflower; 125 g ai/ha): 0%; % damage Chenopodium (Chenopodium [1]; 125 g ai/ha): 100%; % damage Solanum (Solanum; 125 g ai/ha): 100%; % damage Maize (Maize; 125 g ai/ha): 10%; % damage Abutilon (Abutilon; 125 g ai/ha): 100%; % damage Polygonum (Polygonum; 250 g ai/ha): 100%; % damage Wheat (Wheat; 250 g ai/ha): 20%; % damage Amaranthus (Amaranthus; 250 g ai/ha): 60%; % damage Chenopodium (Chenopodium [2]; 250 g ai/ha): 90%; % damage Datura (Datura; 250 g ai/ha): 100%; % damage Veronica (Veronica; 250 g ai/ha): 100%
C#CCOc1cc(-n2ncc(C)cc2=O)c(F)cc1C#N [Example 37],,,,,,,,,,,,% damage Polygonum (Polygonum; 125 g ai/ha): 100%; % damage Wheat (Wheat; 125 g ai/ha): 20%; % damage Amaranthus (Amaranthus; 125 g ai/ha): 100%; % damage Chenopodium (Chenopodium [2]; 125 g ai/ha): 100%; % damage Datura (Datura; 125 g ai/ha): 100%; % damage Veronica (Veronica; 125 g ai/ha): 100%
C#CC(CC)Oc1cc(-n2ncc(C)cc2=O)c(F)cc1C#N (stereo not drawn) [Example 35],100,100,0,100,100,,,,,,,% damage Chenopodium (Chenopodium [1]; 250 g ai/ha): 100%; % damage Polygonum (Polygonum; 60 g ai/ha): 90%; % damage Wheat (Wheat; 60 g ai/ha): 20%; % damage Amaranthus (Amaranthus; 60 g ai/ha): 95%; % damage Chenopodium (Chenopodium [2]; 60 g ai/ha): 95%; % damage Datura (Datura; 60 g ai/ha): 100%; % damage Veronica (Veronica; 60 g ai/ha): 95%
"Nc1cnn(-c2ccccc2)c(=O)c1Cl [(A), 5-Amino-4-chloro-2-phenyl-pyridazin-3-one, reference compound]",,,,,,100,50,40,0,20,,
"Cc1cnn(-c2ccccc2)c(=O)c1Br [(B), 4-Bromo-5-methyl-2-phenyl-pyridazin-3-one, reference compound]",,,,,,0,50,50,0,0,30,% damage Polygonum (Polygonum; 250 g ai/ha): 50%; % damage Wheat (Wheat; 250 g ai/ha): 30%; % damage Amaranthus (Amaranthus; 250 g ai/ha): 30%; % damage Chenopodium (Chenopodium [2]; 250 g ai/ha): 50%; % damage Datura (Datura; 250 g ai/ha): 80%; % damage Veronica (Veronica; 250 g ai/ha): 40%
CCS(=O)(=O)Nc1cc(-n2ncc(C)cc2=O)c(F)cc1C#N [Example 31],80,100,0,100,100,,,,,,,% damage Sunflower (Sunflower; 250 g ai/ha): 0%; % damage Polygonum (Polygonum; 60 g ai/ha): 90%; % damage Wheat (Wheat; 60 g ai/ha): 5%; % damage Amaranthus (Amaranthus; 60 g ai/ha): 100%; % damage Chenopodium (Chenopodium [2]; 60 g ai/ha): 80%; % damage Datura (Datura; 60 g ai/ha): 100%; % damage Veronica (Veronica; 60 g ai/ha): 90%
CCS(=O)(=O)Nc1cc(-n2ncc(C)cc2=O)c(Cl)cc1Cl [Example 34],,,,,100,20,100,90,0,100,100,
"Cc1cnn(-c2cc(F)c(C#N)cc2F)c(=O)c1 [Example 3, 2-(2,5-difluoro-4-cyano-phenyl)-5-methyl-pyridazin-3-one]",100,90,0,100,100,,,,,,,% damage Sunflower (Sunflower; 250 g ai/ha): 0%
C#CC(C)Oc1cc(-n2nc(C)ccc2=O)c(F)cc1C#N (stereo not drawn) [Example 16],,,,,100,20,100,100,10,100,100,% damage Polygonum (Polygonum; 60 g ai/ha): 95%; % damage Wheat (Wheat; 60 g ai/ha): 5%; % damage Amaranthus (Amaranthus; 60 g ai/ha): 100%; % damage Chenopodium (Chenopodium [2]; 60 g ai/ha): 95%; % damage Datura (Datura; 60 g ai/ha): 100%; % damage Veronica (Veronica; 60 g ai/ha): 90%
"C#CC(C)Oc1cc(-n2ncc(C)cc2=O)c(F)cc1C#N (stereo not drawn) [Example 8, 2-(2-fluoro-4-cyano-5-but-1-ine-3-yl-oxy-phenyl)-5-methyl-pyridazin-3-one]",100,100,0,100,100,,,,,,,% damage Sunflower (Sunflower; 250 g ai/ha): 0%; % damage Chenopodium (Chenopodium [1]; 250 g ai/ha): 100%; % damage Polygonum (Polygonum; 60 g ai/ha): 100%; % damage Wheat (Wheat; 60 g ai/ha): 0%; % damage Amaranthus (Amaranthus; 60 g ai/ha): 90%; % damage Chenopodium (Chenopodium [2]; 60 g ai/ha): 95%; % damage Datura (Datura; 60 g ai/ha): 100%; % damage Veronica (Veronica; 60 g ai/ha): 100%
CCS(=O)(=O)Nc1cc(-n2nc(C)ccc2=O)c(F)cc1C#N [Example 15],,,,,100,0,100,95,0,100,80,% damage Polygonum (Polygonum; 250 g ai/ha): 80%; % damage Wheat (Wheat; 250 g ai/ha): 5%; % damage Amaranthus (Amaranthus; 250 g ai/ha): 100%; % damage Chenopodium (Chenopodium [2]; 250 g ai/ha): 95%; % damage Datura (Datura; 250 g ai/ha): 90%; % damage Veronica (Veronica; 250 g ai/ha): 95%
CCS(=O)(=O)Nc1cc(-n2ncc(NC)c(Cl)c2=O)c(F)cc1C#N [Example 25],,,,,100,,90,60,0,100,100,
C#CC(CC)Oc1cc(-n2nc(C)ccc2=O)c(F)cc1C#N (stereo not drawn) [Example 29],,,,,100,0,100,100,0,100,100,
